According to patent US3975529A, “Diebenzo(B,E)thiepines” (Roussel-UCLAF, priority 1974, dated 1976):
Counter-ions that a name gives are not always drawn. Like-named read-outs stand apart in the source and are kept apart here.

Key:
[1] = tested on: trembling and peripherial cholinergic manifestations provoked by oxotremorine; assay: Antioxotremorine activity: antagonism to the trembling and peripherial cholinergic manifestations (Table II); type: in vivo, mice
Experimental: The antagonism of the test products to the trembling and peripherial cholinergic manifestations provoked by oxotremorine [Cho et al, J. Biochem. Biophys. Res. Commun., Vol. 5, (196l) p. 276] was studied on mice. The product of Example 1 was administered subcutaneously in aqueous solution at doses of 50 and 100 mg/kg to groups of 10 mice and the products of Example 2 were subcutaneously administered in sesame oil solution at doses of 200 and 400 mg/kg to groups of 10 mice. Control animals received no vehicle. The mice then received a single intraperitoneal dose of 0.5 mg/kg of oxotremorine either 4 hours, 1 day, 2, 3, 4 or 7 days after the injection of the test product. The reaction of the animals as in Table I were recorded 5,10 and 15 minutes after the injection of oxotremorine and the percent of inhibition of the different reactions, at the height of the effect, after the oxotremorine injection was determined as a function of time.

[2] = tested on: trembling and peripherical cholinergic manifestations provoked by tremorine; assay: Antitremorine activity (ED50); type: in vivo; settings: mice; for ED50: Mus musculus, ip, i.p. aqueous solution, tremorine 20 mg/kg i.p. half an hour after
Experimental: (§1) The antagonism of the test compounds to the trembling and peripherical cholinergic manifestations provoked by tremorine [Everett et al, Science, Vol. 124 (1956), p. 79] was studied on mice.
The product of Example 1 in aqueous solution was intraperitoneally administered at doses of 0.5, 1,2 and 5 mg/kg to groups of 10 mice and the mice received an intraperitoneal injection of 20 mg/kg of tremorine half an hour after the test product. The reactions (trembling, salivation, lacrymation) of the animals were observed 10, 20, 30 and 60 minutes after the tremorine injection. At the height of the activity, the 50% efficacy dose (ED50) in which 50% of the animals were protected from the trembling and peripheral parasympathomimetic reactions of salivation and lacrymation normally provoked by tremorine injection were determined.

[3] = tested on: antinociceptive activity of oxotremorine; assay: Antagonism of antinociceptive activity of oxotremorine, hot plate (Table III); type: in vivo, mice
Experimental: The antinociceptive activity of oxotremorine [Leslie, J. Pharm. Pharmae., Vol. 2 (1969), p. 248-50] was determined on mice using the hot plate method of Eddy et al [J. Pharmacol. Vol. 107 (1953), p. 385] in the presence and absence of the test product presumed to be antagonistic. The product of Example 1 was administered subcutaneously in aqueous solution at doses of 50 and 100 mg/kg to groups of 10 mice and the products of Examples 2 to 5 were subcutaneously administered in sesame oil solution at doses of 200 and 400 mg/kg to groups of 10 mice. The mice then received a single intraperitoneal injection of 0.5 mg/kg of oxotremorine either 4 hours, 1 day, 2, 3, 4 or 7 days after the test product administration. For each time considerated, the mice were placed on the hot plate one half hour after the oxotremorine administration and the time for the appearance of nociceptive refluxes consistituted by simultaneous licking of the front paws was noted. The maximum time of staying on the hot plate was fixed at 45 seconds and the percentage of animals with a reaction time (RT) less than 40 seconds in spite of oxotremorine administration was determined.

[4] = Acute toxicity study (LD50); parameters: species or system mice; settings: mouse, in vivo, aqueous solution
Experimental: The acute toxicity of the products was determined intraperitoneally or subcutaneously on mice weighing about 20 g with the LD50 dose being calculated by the method of Litchfield et al [J. Pharmacol. exp. Therap., Vol. 96 (1949), p. 99-133]. The LD50 for the product of Example 1 in aqueous solution was about 100 mg/kg intraperitoneally after 2 days of observation and about 500 mg/kg subcutaneously after 5 days of observation.

[5] = tested on: trembling and peripherical cholinergic manifestations provoked by tremorine; assay: Antitremorine activity as a function of time (Table I); type: in vivo, mice
Experimental: as §1
The products of Examples 2 and 3 were administered subcutaneously in sesame oil solution at doses of 200 and 400 mg/kg at a volume of 25 ml/kg to groups of 10 mice. The mice receied intraperitoneal injections of 20 mg/kg of tremorine either for 4 hours, one day, 2, 3 or 4 days after injection of the test product. […] The reactions (T-trembling; S-salivation; L-lacrymation) were noted 10, 20, 30 and 60 minutes after the tremorine injection and the percent of inhibition of the different reactions at the height of the effect after injection of tremorine were noted as a function of time.

[6] = 50 mg/kg s.c. aqueous solution, after 4 h
[7] = 50 mg/kg s.c. aqueous solution, after 1 d
[8] = 100 mg/kg s.c. aqueous solution, after 4 h
[9] = 100 mg/kg s.c. aqueous solution, after 1 d
[10] = 200 mg/kg s.c. sesame oil, after 4 h
[11] = 200 mg/kg s.c. sesame oil, after 1 d
[12] = 200 mg/kg s.c. sesame oil, after 2 d
[13] = 200 mg/kg s.c. sesame oil, after 3 d
[14] = 200 mg/kg s.c. sesame oil, after 4 d
[15] = 200 mg/kg s.c. sesame oil, after 7 d
[16] = 400 mg/kg s.c. sesame oil, after 4 h
[17] = 400 mg/kg s.c. sesame oil, after 1 d
[18] = 400 mg/kg s.c. sesame oil, after 2 d
[19] = 400 mg/kg s.c. sesame oil, after 3 d
[20] = 400 mg/kg s.c. sesame oil, after 4 d
[21] = 400 mg/kg s.c. sesame oil, after 7 d

OCCN1C2CCC1CC(=C1c3ccccc3CSc3ccccc31)C2 (racemic) [Example 1, dl N-(β-hydroxyethyl)-11-(3'-nortropylidene)-6,11-dihydrodibenzo(b,e)thiepine hydrochloride]
% inhibition of reactions: L (lacrymation) [1, 6]: 100% | % inhibition of reactions: S (salivation) [1, 6]: 100% | % inhibition of reactions: T (trembling) [1, 6]: 100% | % inhibition of reactions: L (lacrymation) [1, 7]: 0% | % inhibition of reactions: S (salivation) [1, 7]: 0% | % inhibition of reactions: T (trembling) [1, 7]: 0% | % inhibition of reactions: L (lacrymation) [1, 8]: 100% | % inhibition of reactions: S (salivation) [1, 8]: 100% | % inhibition of reactions: T (trembling) [1, 8]: 100% | % inhibition of reactions: L (lacrymation) [1, 9]: 0% | % inhibition of reactions: S (salivation) [1, 9]: 0% | % inhibition of reactions: T (trembling) [1, 9]: 0% | ED50 ([2]; read-out: ED50 for parasympathomimetic reactions (salivation and lacrymation)): 1 to 2 mg/kg | ED50 ([2]; read-out: ED50 for trembling): 1 mg/kg | anticholinergic activity (in words) ([2]; antitremorine test, i.p.): important anticholinergic activity | % of animals with a RT less than 40 seconds [3, 6]: 100% | % of animals with a RT less than 40 seconds [3, 7]: 10% | % of animals with a RT less than 40 seconds [3, 8]: 100% | % of animals with a RT less than 40 seconds [3, 9]: 20% | antagonistic activity against antinociceptive activity of oxotremorine (in words) ([3]; s.c., mice, Table III): important antagonistic activity against antinociceptive activity of oxotremorine which is manifested for several hours | LD50 at 48 h ([4]; ip, after 2 days of observation): ~100 mg/kg | LD50 at 120 h ([4]; sc, after 5 days of observation): ~500 mg/kg

CCC(=O)OCCN1C2CCC1CC(=C1c3ccccc3CSc3ccccc31)C2 (racemic) [Example 2, dl N-(β-propionyloxyethyl)-11-(3'-nortropylidene)-6,11-dihydrodibenzo(b,e)thiepine]
% inhibition of reactions: L (lacrymation) [1, 10]: 100% | % inhibition of reactions: S (salivation) [1, 10]: 80% | % inhibition of reactions: T (trembling) [1, 10]: 80% | % inhibition of reactions: L (lacrymation) [1, 11]: 100% | % inhibition of reactions: S (salivation) [1, 11]: 90% | % inhibition of reactions: T (trembling) [1, 11]: 100% | % inhibition of reactions: L (lacrymation) [1, 12]: 70% | % inhibition of reactions: S (salivation) [1, 12]: 30% | % inhibition of reactions: T (trembling) [1, 12]: 30% | % inhibition of reactions: L (lacrymation) [1, 13]: 30% | % inhibition of reactions: S (salivation) [1, 13]: 10% | % inhibition of reactions: T (trembling) [1, 13]: 0% | % inhibition of reactions: L (lacrymation) [1, 14]: 11% | % inhibition of reactions: S (salivation) [1, 14]: 0% | % inhibition of reactions: L (lacrymation) [1, 15]: 10% | % inhibition of reactions: S (salivation) [1, 15]: 0% | % inhibition of reactions: T (trembling) [1, 15]: 0% | % inhibition of reactions: L (lacrymation) [1, 16]: 100% | % inhibition of reactions: S (salivation) [1, 16]: 100% | % inhibition of reactions: T (trembling) [1, 16]: 100% | % inhibition of reactions: L (lacrymation) [1, 17]: 100% | % inhibition of reactions: S (salivation) [1, 17]: 100% | % inhibition of reactions: T (trembling) [1, 17]: 100% | % inhibition of reactions: L (lacrymation) [1, 18]: 80% | % inhibition of reactions: S (salivation) [1, 18]: 60% | % inhibition of reactions: T (trembling) [1, 18]: 70% | % inhibition of reactions: L (lacrymation) [1, 19]: 10% | % inhibition of reactions: S (salivation) [1, 19]: 20% | % inhibition of reactions: T (trembling) [1, 19]: 0% | % inhibition of reactions: L (lacrymation) [1, 20]: 67% | % inhibition of reactions: S (salivation) [1, 20]: 20% | % inhibition of reactions: T (trembling) [1, 20]: 20% | % inhibition of reactions: L (lacrymation) [1, 21]: 20% | % inhibition of reactions: S (salivation) [1, 21]: 20% | % inhibition of reactions: T (trembling) [1, 21]: 10% | antioxotremorine activity (in words) ([1]; s.c. sesame oil, mice, Table II): prolonged antioxotremorine activity | % of animals with a RT less than 40 seconds [3, 10]: 100% | % of animals with a RT less than 40 seconds [3, 11]: 100% | % of animals with a RT less than 40 seconds [3, 12]: 90% | % of animals with a RT less than 40 seconds [3, 13]: 50% | % of animals with a RT less than 40 seconds [3, 14]: 60% | % of animals with a RT less than 40 seconds [3, 15]: 30% | % of animals with a RT less than 40 seconds [3, 16]: 100% | % of animals with a RT less than 40 seconds [3, 17]: 100% | % of animals with a RT less than 40 seconds [3, 18]: 100% | % of animals with a RT less than 40 seconds [3, 19]: 80% | % of animals with a RT less than 40 seconds [3, 20]: 90% | % of animals with a RT less than 40 seconds [3, 21]: 20% | % inhibition of reactions: L (lacrymation) [5, 10]: 100% | % inhibition of reactions: S (salivation) [5, 10]: 90% | % inhibition of reactions: T (trembling) [5, 10]: 100% | % inhibition of reactions: L (lacrymation) [5, 11]: 100% | % inhibition of reactions: S (salivation) [5, 11]: 90% | % inhibition of reactions: T (trembling) [5, 11]: 90% | % inhibition of reactions: L (lacrymation) [5, 12]: 40% | % inhibition of reactions: S (salivation) [5, 12]: 0% | % inhibition of reactions: T (trembling) [5, 12]: 0% | % inhibition of reactions: L (lacrymation) [5, 13]: 100% | % inhibition of reactions: S (salivation) [5, 13]: 50% | % inhibition of reactions: T (trembling) [5, 13]: 20% | % inhibition of reactions: L (lacrymation) [5, 14]: 60% | % inhibition of reactions: S (salivation) [5, 14]: 0% | % inhibition of reactions: T (trembling) [5, 14]: 0% | % inhibition of reactions: L (lacrymation) [5, 16]: 100% | % inhibition of reactions: S (salivation) [5, 16]: 100% | % inhibition of reactions: T (trembling) [5, 16]: 100% | % inhibition of reactions: L (lacrymation) [5, 17]: 100% | % inhibition of reactions: S (salivation) [5, 17]: 100% | % inhibition of reactions: T (trembling) [5, 17]: 100% | % inhibition of reactions: L (lacrymation) [5, 18]: 100% | % inhibition of reactions: S (salivation) [5, 18]: 70% | % inhibition of reactions: T (trembling) [5, 18]: 40% | % inhibition of reactions: L (lacrymation) [5, 19]: 100% | % inhibition of reactions: S (salivation) [5, 19]: 20% | % inhibition of reactions: T (trembling) [5, 19]: 10% | % inhibition of reactions: L (lacrymation) [5, 20]: 60% | % inhibition of reactions: S (salivation) [5, 20]: 90% | % inhibition of reactions: T (trembling) [5, 20]: 50% | antitremorine activity (in words) ([5]; s.c. sesame oil, mice, Table I): prolonged antitremorine activity
